Laboratory results published in PubChem BioAssay (NCI).
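Step 1: Grow cells in 96-well plates. Step 2: Expose to compound for 48 hours at 5 concentrations. Step 3: Interpolate endpoints linearly; if unreached, use highest concentration. GI50 marks 50% less growth. TGI is the concentration that stops growth completely.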 Where a SMILES comes first, the peptide text is derived from it. The star is where a group is joined. Palmitoyl = CCCCCCCCCCCCCCCC(=O)*

Assays:
Test in all cases: inhibition of tumour cell growth, NCI panel, 48 h
[1] = system: 786-0 renal
[2] = system: NCI/ADR-RES ovarian
[3] = system: SR leukemia
[4] = system: SW-620 colon
[5] = system: MDA-MB-435
[6] = system: SF-268 CNS
[7] = system: IGROV1 ovarian
[8] = system: MALME-3M melanoma
[9] = system: COLO 205 colon
[10] = system: SK-OV-3 ovarian

Structure (SMILES)	TGI [1] [µM]	TGI [2] [µM]	TGI [3] [µM]	TGI [4] [µM]	TGI [5] [µM]	TGI [6] [µM]	TGI [7] [µM]	TGI [8] [µM]	TGI [9] [µM]	TGI [10] [µM]	GI50 [2] [µM]	GI50 [6] [µM]	GI50 [8] [µM]	GI50 [9] [µM]	GI50 [10] [µM]	GI50 [3] [µM]	GI50 [4] [µM]	GI50 [5] [µM]	GI50 [7] [µM]
O=C(CC(=O)Nc1ccccc1)NNC(Sc1ccccc1)c1cc(N=Nc2ccc(Br)cc2)ccc1O (configuration not stated)	> 10	> 10	> 10	> 10	> 10	8.9	> 10	> 10	> 10	> 10	–	–	–	–	–	–	–	–	–
O=C1c2cccc3cccc(c23)C(=O)N1CCCNCCCCNCCCNCCCN1C(=O)c2cccc3cccc(c23)C1=O	1.36	49.6	–	4.35	2	0.665	3.41	1.25	–	3.42	–	–	–	–	–	–	–	–	–
CC(C)Oc1cccc(N2C(=NCc3c[nH]c4ccccc34)Nc3ccncc3S2(=O)=O)c1	> 100	97.5	> 100	> 100	> 100	> 100	> 100	58.8	29.4	> 100	–	–	–	–	–	–	–	–	–
O=C(O)c1cccc(S(=O)(=O)NN2C(=O)CSC2c2ccc(Cl)cc2Cl)c1 (configuration not stated)	29.4	–	83.5	> 100	47	> 100	> 100	> 100	> 100	> 100	–	–	–	–	–	–	–	–	–
CC(C(=O)COCc1ccccc1)P1(=O)OC(C)(C)CN1C(C)(C)C (configuration not stated)	> 100	> 100	–	> 100	> 100	> 100	–	–	> 100	> 100	–	–	–	–	–	–	–	–	–
N#Cc1sc2c(c1OC(=O)c1ccc(C(F)(F)F)cc1)c(=O)n(-c1ccccc1)c(=S)n2-c1ccccc1	> 100	> 100	–	> 100	94.3	> 100	56.2	84.4	46.4	> 100	–	–	–	–	–	–	–	–	–
O=C(NN1C(=O)CS(=O)(=O)C1c1ccc(C(F)(F)F)cc1)c1ccncc1 (configuration not stated)	–	–	> 100	> 100	–	> 100	–	> 100	> 100	> 100	–	–	–	–	–	–	–	–	–
[N-]=[N+]=CC(=O)OC(CCl)CCl	> 100	–	> 100	> 100	> 100	> 100	> 100	> 100	> 100	> 100	–	–	–	–	–	–	–	–	–
COc1cccc2c1OC(c1cccc3ccccc13)C([N+](=O)[O-])=C2 (configuration not stated)	3.95	7.29	> 100	–	3.02	13.3	7.5	4.08	5.72	9.89	–	–	–	–	–	–	–	–	–
Cc1cc(OP2(=O)NCc3ncccc3O2)ccc1Cl (configuration not stated)	> 100	> 100	> 100	> 100	> 100	–	> 100	–	> 100	–	–	–	–	–	–	–	–	–	–
Cc1ccnc(NC(=S)Nc2ccc([N+](=O)[O-])cc2)c1	> 100	> 100	> 100	> 100	> 100	> 100	> 100	–	–	> 100	–	–	–	–	–	–	–	–	–
COc1cc2c(cc1OCCCCCN1CCN(c3ncnc4ccccc34)CC1)N=CC1CCCN1C2=O (configuration not stated)	–	> 36.4	–	–	–	2.07	–	0.0618	0.0408	0.379	0.378	0.0349	0.0303	0.0187	0.0334	–	–	–	–
COc1cc(C2c3cc4c(cc3[C@@H](Nc3ccccc3)C3COC(=O)[C@H]23)OCO4)cc(OC)c1O (some centres not stated)	–	45.2	–	> 42.9	–	13.2	17.5	8.65	5.66	4.87	–	–	–	–	–	–	–	–	–
CC(C)C1=CC23CCC4C(C)(C(=O)O)CCCC4(C)C2CC1C1C(=O)N(CCCCCCN2C(=O)C4C5CC6C7(C)CCCC(C)(C(=O)O)C7CCC6(C=C5C(C)C)C4C2=O)C(=O)C13 (configuration not stated)	–	–	34.1	33.4	17.8	26.8	–	31.2	–	–	–	–	–	–	–	–	–	–	–
CC(C)(CO)CNc1nc(N)nc(Cl)c1/C=N/O	> 100	> 100	> 100	> 100	> 100	> 100	90.8	> 100	> 100	–	–	–	–	–	–	–	–	–	–
C=C1C(=O)[C@@]23CC[C@@H]4[C@@]5(C)CCC[C@@]4(OC5=O)[C@@]2(C)CC[C@@H]1C3	2.55	21.4	> 100	–	13.7	6.12	4.99	5.31	–	23.3	–	–	–	–	–	–	–	–	–
CC1OC(O[C@H]2C3C=CO[C@@H](OC4OC(CO)C(O)C(O)C4O)C3[C@@]3(COC(=O)/C=C/c4ccccc4)O[C@@H]23)C(O)C(O)C1O (some centres not stated)	> 100	> 100	–	> 100	> 100	> 100	> 100	> 100	> 100	> 100	–	–	–	–	–	–	–	–	–
O=C1NC(O)CCN1C1OC(CO)C(O)C1O (configuration not stated)	–	> 250	–	> 250	–	> 250	> 250	> 250	> 250	> 250	–	–	–	–	–	–	–	–	–
O=C1CSC2(CC(/C=C/c3cccs3)=NN2c2cccc(S(=O)(=O)O)c2)N1c1nc2ccccc2s1 (configuration not stated)	> 100	> 100	> 100	> 100	> 100	> 100	> 100	> 100	> 100	–	–	–	–	–	–	–	–	–	–
Cc1c2c(c(C)n1-c1ccccc1)C(=O)N(CCN1CCN(c3cccc(C(F)(F)F)c3)CC1)C2=O	> 100	> 100	–	–	> 100	> 100	> 100	> 100	> 100	> 100	–	–	–	–	–	–	–	–	–
C=C(C)CNCCN	> 100	> 100	> 100	> 100	> 100	> 100	> 100	> 100	–	–	–	–	–	–	–	–	–	–	–
Cc1cc(N(C)C)c2ccccc2[n+]1CCCCCCCCCC[n+]1c(C)cc(N(C)C)c2ccccc21	19.5	43.9	–	16.5	3.26	33.3	> 20.6	> 41.6	6.07	5.81	–	–	–	–	–	–	–	–	–
CCCCCCCCCCCCCCCC(=O)N1CCCC1C(=O)NCC(=O)NC(Cc1ccccc1)C(=O)N1CCCC1C(=O)NC(CO)C(=O)NC(Cc1ccc(O)cc1)C(=O)NC(CCCCN)C(=O)NC(CC(C)C)C(=O)NC(CCCN=C(N)N)C(=O)N1CCCC1C(=O)NCC(N)=O (configuration not stated) (Palmitoyl-PGFPSYKLRPG-NH2; configuration not given here)	–	39.2	44.9	73.9	> 100	30.6	48.8	5.73	33.3	48.1	18.2	12.4	0.45	10.3	23.2	16.5	25.5	23.6	18.6

Structure (SMILES)	TGI [1] [µM]	TGI [2] [µM]	TGI [3] [µM]	TGI [4] [µM]	TGI [5] [µM]	TGI [6] [µM]	TGI [7] [µM]	TGI [8] [µM]	TGI [9] [µM]	TGI [10] [µM]	GI50 [2] [µM]	GI50 [6] [µM]	GI50 [8] [µM]	GI50 [9] [µM]	GI50 [10] [µM]	GI50 [3] [µM]	GI50 [4] [µM]	GI50 [5] [µM]	GI50 [7] [µM]
O=C(OCC(Cl)(Cl)Cl)N1CC[C@H](C2CCCCC2)C1	33.1	28.5	40.6	–	–	36.3	32.7	–	39	31.8	–	–	–	–	–	–	–	–	–
Cc1ccsc1/C=N/Nc1cnccn1	> 100	> 100	–	> 100	> 100	> 100	> 100	> 100	> 100	> 100	–	–	–	–	–	–	–	–	–
CCOC(=O)/C=C1/C(CCCOCc2ccccc2)C2CCCC23CC2(CCN13)OCCO2 (configuration not stated)	–	–	–	> 100	–	> 100	> 100	33.9	34.2	82.9	–	–	–	–	–	–	–	–	–
Nc1ncnc2c1ccn2C/C=C/CO	> 100	> 100	–	> 100	> 100	> 100	> 100	> 100	> 100	> 100	–	–	–	–	–	–	–	–	–
CCCCOCCOC1=C(Cl)C(=O)c2c(O)ccc(O)c2C1=O	0.505	9.14	–	0.387	1.07	3.18	2.47	0.628	0.397	6.65	–	–	–	–	–	–	–	–	–
Nc1c(S(=O)(=O)c2ccc(Cl)cc2)c2nc3ccccc3nc2n2ccnc12	> 100	–	–	–	–	> 100	> 100	> 100	> 100	> 100	–	–	–	–	–	–	–	–	–
CN1Cc2c(nc(-c3ccccc3)c[n+]2[O-])N(C)C1	> 100	–	–	> 100	–	> 100	> 100	> 100	> 100	> 100	–	–	–	–	–	–	–	–	–
COc1ccc(CC(N)=O)cc1OC	–	> 1250	–	> 1250	–	> 1250	> 1250	> 1250	> 1250	> 1250	–	–	–	–	–	–	–	–	–
O=C1C(=Nc2ccc(Nc3ccccc3)cc2)Oc2ccccc21	3.37	–	4.71	4.67	3.45	9.73	5.96	9.71	3.01	23	–	–	–	–	–	–	–	–	–
CN(C)Cc1cc(C(=O)/C=C/c2ccc([N+](=O)[O-])cc2)cc(CN(C)C)c1O	15.2	87	22.2	27.1	37.3	42.9	35.6	–	4.67	–	–	–	–	–	–	–	–	–	–
O=C(CN1C(=O)CC(c2ccccc2)(c2ccccc2)C1=O)N1CCN(CCO)CC1	> 100	> 100	–	> 100	> 100	> 100	> 100	–	> 100	> 100	–	–	–	–	–	–	–	–	–
C=C(CN(C)C)C(=O)c1ccc(C(=O)C(=C)CN(C)C)cc1	> 100	–	> 100	> 100	–	> 100	> 100	> 100	> 100	> 100	–	–	–	–	–	–	–	–	–
CC1(C)C=CC(=O)C(O)C(C)(C)C1=O (configuration not stated)	> 100	> 100	–	> 100	> 100	> 100	> 100	> 100	> 100	> 100	–	–	–	–	–	–	–	–	–
CO/N=C(/C(=O)OC)c1ccccc1COc1ccccc1C(F)(F)F	> 100	> 100	79.2	–	> 100	> 100	> 100	47.2	> 100	91.8	–	–	–	–	–	–	–	–	–
CNc1[nH]c(=S)nc2sc3c(c12)CCCC3	> 75	> 75	> 75	> 75	> 75	> 75	> 75	> 75	> 75	–	–	–	–	–	–	–	–	–	–
O[C@H]1[C@H](O)[C@@H](O)CN2CC[C@H](O)[C@H]12	–	> 100	–	> 100	–	> 100	> 100	> 100	> 100	> 100	–	–	–	–	–	–	–	–	–
Cc1cc(C)nc(NC(=S)Nc2ccc([N+](=O)[O-])cc2)c1	> 100	> 100	> 100	> 100	> 100	> 100	> 100	–	> 100	–	–	–	–	–	–	–	–	–	–
O=C(NCCCl)O/N=C/c1cccnc1	–	> 100	–	> 100	–	> 100	> 100	> 100	> 100	> 100	–	–	89.5	–	–	–	–	–	–
COc1cc(C=O)ccc1O	> 100	> 100	> 100	> 100	> 100	> 100	> 100	> 100	> 100	–	–	–	–	–	–	–	–	–	–
CSc1nc2c(c(N(C)C)n1)C(O)n1c(nc3ccccc31)S2 (configuration not stated)	> 100	> 100	–	> 100	> 100	> 100	> 100	> 100	> 100	43.6	–	–	–	–	–	–	–	–	–
Clc1sc(Cl)c2c1[C@@H](Cl)C[C@@H]2Br	> 100	–	48.3	> 100	> 100	> 100	> 100	> 100	> 100	> 100	–	–	–	–	–	–	–	–	–
COc1ccc(-c2nc3ccccc3c(=S)n2OC(C)=O)cc1	> 25	> 25	–	> 25	> 25	> 25	> 25	20.4	> 25	> 25	–	–	–	–	–	–	–	–	–
CN1CC[C@]2(c3cccc(O)c3)CC(=O)/C(=C/c3ccccc3)[C@@H]1C2	7.12	16.1	8.68	6.93	5.38	10.4	14.6	10.4	18.1	–	–	–	–	–	–	–	–	–	–
